According to patent publication US20240352010A1, “SUBSTITUTED 1,2,4-THIADIAZOLYL NICOTINAMIDES, SALTS OR N-OXIDES THEREOF AND THEIR USE AS HERBICIDALLY ACTIVE SUBSTANCES” (BayerAktiengesellschaft, priority 2021, published 2024):

Assays:
Assay type in all cases: in vivo
[1] = test system: Abutilon theophrasti (ABUTH); experiment: Herbicidal post-emergence action, ABUTH; settings: 1280 g/ha, assessed visually after ca. 3 weeks vs untreated controls (Table B1)
Source text: (§1) Seeds of mono- and dicotyledonous weed plants were sown in plastic pots (double sowings with one species of mono- and one species of dicotyledonous weed plants per pot), in sandy loam, covered with soil and grown under controlled growth conditions. 2 to 3 weeks after sowing, the test plants were sprayed in the single-leaf stage. The compounds according to the invention, formulated in the form of wettable powders (WP) or as emulsifiable concentrates (EC), were sprayed onto the green plant parts as an aqueous suspension or as an emulsion, with the addition of 0.5% of an additive, at an application rate of 600 litres of water per hectare (converted). The test plants were placed in the greenhouse for ca. 3 weeks under optimum growth conditions, and then the effect of the preparations is assessed visually in comparison with untreated controls (herbicidal effect in percent (%): 100% effect=plants have died, 0% effect=as control plants).

[2] = test system: Abutilon theophrasti (ABUTH); experiment: Herbicidal pre-emergence action, ABUTH; settings: 1280 g/ha, visual grading after ca. 3 weeks vs untreated controls (Table A1)
Source text: (§2) Seeds of mono- and dicotyledonous weed plants were sown in plastic pots (double sowings with one species of mono- and one species of dicotyledonous weed plants per pot), in sandy loam, and covered with soil. The compounds according to the invention, formulated in the form of wettable powders (WP) or as emulsifiable concentrates (EC), were applied to the surface of the covering soil as an aqueous suspension or as an emulsion, with the addition of 0.5% of an additive, at an application rate of 600 litres of water per hectare (converted). Following treatment, the pots were placed in a greenhouse and kept under optimum growth conditions for the test plants. The visual grading of the damage to the test plants is carried out after ca. 3 weeks in comparison to untreated controls (herbicidal effect in percent (%): 100% effect=plants have died, 0% effect=as control plants).

Poa annua (POAAN) [3] = experiment: Herbicidal post-emergence action, POAAN
Source text: as §1, with “plants).[…]” for “plants).”

[4] = test system: Alopecurus myosuroides (ALOMY); experiment: Herbicidal post-emergence action, ALOMY; settings: 1280 g/ha, assessed visually after ca. 3 weeks vs untreated controls (Table B2)
Source text: as §1

Setaria viridis (SETVI) [5] = experiment: Herbicidal post-emergence action, SETVI
Source text: as §1, with “plants).[…]” for “plants).”

Kochia scoparia (KCHSC) = experiment: Herbicidal post-emergence action, KCHSC
Source text: as §1, with “plants).[…]” for “plants).”

[6] = test system: Alopecurus myosuroides (ALOMY); experiment: Herbicidal pre-emergence action, ALOMY; settings: 1280 g/ha, visual grading after ca. 3 weeks vs untreated controls (Table A12)
Source text: as §2

[7] = test system: Digitaria sanguinalis (DIGSA); experiment: Herbicidal pre-emergence action, DIGSA
Source text: as §2, with “plants). Seeds of mono- and dicotyledonous weed plants were sown in plastic pots (double sowings with one species of mono- and one species of dicotyledonous weed plants per pot), in sandy loam, and covered with soil. The compounds according to the invention, formulated in the form of wettable powders (WP) or as emulsifiable concentrates (EC), were applied to the surface of the covering soil as an aqueous suspension or as an emulsion, with the addition of 0.5% of an additive, at an application rate of 600 litres of water per hectare (converted). Following treatment, the pots were placed in a greenhouse and kept under optimum growth conditions for the test plants. The visual grading of the damage to the test plants is carried out after ca. 3 weeks in comparison to untreated controls (herbicidal effect in percent (%): 100% effect=plants have died, 0% effect=as control plants).” for “plants).”

Poa annua (POAAN) [8] = experiment: Herbicidal pre-emergence action, POAAN
Source text: as §2, with “plants). Seeds of mono- and dicotyledonous weed plants were sown in plastic pots (double sowings with one species of mono- and one species of dicotyledonous weed plants per pot), in sandy loam, and covered with soil. The compounds according to the invention, formulated in the form of wettable powders (WP) or as emulsifiable concentrates (EC), were applied to the surface of the covering soil as an aqueous suspension or as an emulsion, with the addition of 0.5% of an additive, at an application rate of 600 litres of water per hectare (converted). Following treatment, the pots were placed in a greenhouse and kept under optimum growth conditions for the test plants. The visual grading of the damage to the test plants is carried out after ca. 3 weeks in comparison to untreated controls (herbicidal effect in percent (%): 100% effect=plants have died, 0% effect=as control plants).” for “plants).”

Setaria viridis (SETVI) [9] = experiment: Herbicidal pre-emergence action, SETVI
Source text: as §2, with “plants). Seeds of mono- and dicotyledonous weed plants were sown in plastic pots (double sowings with one species of mono- and one species of dicotyledonous weed plants per pot), in sandy loam, and covered with soil. The compounds according to the invention, formulated in the form of wettable powders (WP) or as emulsifiable concentrates (EC), were applied to the surface of the covering soil as an aqueous suspension or as an emulsion, with the addition of 0.5% of an additive, at an application rate of 600 litres of water per hectare (converted). Following treatment, the pots were placed in a greenhouse and kept under optimum growth conditions for the test plants. The visual grading of the damage to the test plants is carried out after ca. 3 weeks in comparison to untreated controls (herbicidal effect in percent (%): 100% effect=plants have died, 0% effect=as control plants).” for “plants).”

[10] = 320 g/ha, assessed visually after ca. 3 weeks vs untreated controls (Table D3)
[11] = 1280 g/ha, assessed visually after ca. 3 weeks vs untreated controls (Table B8)
[12] = 320 g/ha, assessed visually after ca. 3 weeks vs untreated controls (Table D1)
[13] = 1280 g/ha, assessed visually after ca. 3 weeks vs untreated controls (Table B4)
[14] = 1280 g/ha, visual grading after ca. 3 weeks vs untreated controls (Table A2)
[15] = 320 g/ha, visual grading after ca. 3 weeks vs untreated controls (Table C4)
[16] = 1280 g/ha, visual grading after ca. 3 weeks vs untreated controls (Table A7)
[17] = 320 g/ha, visual grading after ca. 3 weeks vs untreated controls (Table C5)
[18] = 1280 g/ha, visual grading after ca. 3 weeks vs untreated controls (Table A8)

Row | SMILES | herbicidal effect in percent, ABUTH [1] [%] | herbicidal effect in percent, ABUTH [2] [%] | herbicidal effect in percent, POAAN (Poa annua (POAAN) [3]; [10]) [%] | herbicidal effect in percent, POAAN (Poa annua (POAAN) [3]; [11]) [%] | herbicidal effect in percent, ALOMY [4] [%] | herbicidal effect in percent, SETVI (Setaria viridis (SETVI) [5]; 320 g/ha, assessed visually after ca. 3 weeks vs untreated controls (Table D8)) [%] | herbicidal effect in percent, SETVI (Setaria viridis (SETVI) [5]; 1280 g/ha, assessed visually after ca. 3 weeks vs untreated controls (Table B7)) [%] | herbicidal effect in percent, KCHSC (Kochia scoparia (KCHSC); [12]) [%] | herbicidal effect in percent, KCHSC (Kochia scoparia (KCHSC); [13]) [%] | herbicidal effect in percent, ALOMY [6] [%] | herbicidal effect in percent, DIGSA ([7]; 320 g/ha, visual grading after ca. 3 weeks vs untreated controls (Table C10)) [%] | herbicidal effect in percent, DIGSA [7, 14] [%] | herbicidal effect in percent, POAAN (Poa annua (POAAN) [8]; [15]) [%] | herbicidal effect in percent, POAAN (Poa annua (POAAN) [8]; [16]) [%] | herbicidal effect in percent, SETVI (Setaria viridis (SETVI) [9]; [17]) [%] | herbicidal effect in percent, SETVI (Setaria viridis (SETVI) [9]; [18]) [%]
1 | O=C(Nc1nc(Cl)ns1)c1c(C2CC2)ccnc1Cl [Example I-013] | 90 | 90 | 90 | 90 | 90 | – | – | – | – | – | – | – | – | – | – | –
2 | O=C(Nc1ncns1)c1c(C2CC2)ccnc1F [Example I-005] | – | 90 | 100 | 100 | 90 | 90 | 100 | 100 | 100 | 100 | 90 | 90 | 100 | 100 | 100 | 100
3 | O=C(Nc1ncns1)c1c(C2CC2)ccnc1Cl [Example I-003, 2-chloro-4-cyclopropyl-N-(1,2,4-thiadiazol-5-yl)pyridine-3-carboxamide] | 90 | 90 | 90 | 100 | – | – | – | 90 | 100 | – | – | 90 | 90 | 100 | 100 | 100
